Data set [1] is described as follows: Chemical stability of carboxylic acids (acid, base, storage). The following applies: room temperature, one day. Format: physicochemical. From the text: We also checked the chemical stability of three representative carboxylic acids, 1b, 19b and 22b (Table 2), because we suspected that some of them could decompose via a retro-Michael-type reaction. […] All products were crystalline solids, and we stored all of them in closed vials at room temperature on the shelf.

A short description of data set [2]: Metabolic stability in human liver microsomes. Format: in vitro ADME. Conditions: both sexes; for microsomal CLint at 2 µM: 0.42 mg protein per ml, Table S3, read-out: Clint; for microsomal CLint at 2 µM / half-life at 2 µM / k el at 2 µM: * approximate due to high stability; for half-life at 2 µM: read-out: t1/2; for k el at 2 µM: elimination constant, read-out: kel (converted). The protocol: (§1) The data acquisition and system control was performed using Analyst 1.6.3 software from AB Sciex. Methods Microsomal incubations were carried out in 96-well plates in 5 aliquots of 30 μL each (one for each time point). […] In the control reactions the NADPH-cofactor system was substituted with phosphate buffer. […] Each reaction was performed in duplicates. Five time points over 40 minutes were analyzed. The reactions were stopped by adding 4 volumes of methanol containing internal standard to incubation aliquots, followed by protein sedimentation by centrifuging at 5500 rpm for 4 minutes. […]. Supernatants were analyzed using the HPLC system coupled with tandem mass spectrometer. […] In some cases, the last time point is excluded from the calculations to ensure acceptable logarithmic linearity of decay.
On the technique in general: Microsomes from liver hold many membrane-bound enzymes, among them those of drug oxidation.

The test system of the next data set is human liver microsomes. Briefly: Metabolic stability in human liver microsomes. Format: in vitro ADME. Conditions: human liver microsomes. The protocol: as §1
Data set [3] is described as follows: Kinetic solubility in phosphate-buffered saline, pH 7.4. The class given is physicochemical. Conditions: phosphate-buffered saline, 25 °C, pH 7.4, aqueous buffer, kinetic from dmso stock. On the procedure: Analysis of Aqueous Solubility […]
compound (Ondansetron) were assessed for kinetic solubility in phosphate-buffered saline, pH […]
Phosphate buffered saline, pH 7.4 (Sigma-Aldrich, USA; Cat #P3813) […]
MultiScreen HTS 96 Well Filter Plates (Millipore, Ireland; Cat # MSGVS2210) […]
Matrix Multichannel Electronic Pipette 2-125 µL, 5-250 µL, 15-1250 µL (Thermo Scientific, […]
Vacuum pump (Millipore, USA; Model # XX5500000)
The measurements were performed using SpectraMax Plus reader in UV-Vis mode. Acquisition and analysis of the data were performed using SoftMax Pro v.5.4 (Molecular Devices) and Excel […]
Kinetic solubility assay was performed according to the Enamine’s aqueous solubility SOP.
Briefly, using a 20 mM stock solution of the compound in 100% DMSO dilutions were prepared to a theoretical concentration of 400 μM in duplicates in phosphate-buffered saline pH 7.4 […]
for two hours and then filtered through HTS filter plates using a vacuum manifold. The filtrates of test compounds were diluted 2-fold with acetonitrile with 2% DMSO before measuring.
In parallel, compound dilutions in acetonitrile/PBS (1:1) were prepared to theoretical […]
DMSO to generate calibration curves. Ondansetron was used as reference compound to control proper assay performance. 200 μl of each sample was transferred to 96-well plate and measured in 200-550 nm range with 5 nm step.
The concentrations of compounds in PBS filtrate are calculated using a dedicated Microsoft Excel calculation script. Proper absorbance wavelengths for calculations are selected for each compound manually based on absorbance maximums (absolute absorbance unit values for the minimum and maximum concentration points within 0 – 3 OD range). Each of the final datasets is additionally visually evaluated by the operator and goodness of fit (R2) is calculated for each calibration curve. The effective range of this assay is approximately 2-400 μM and the […]

Another data set is described as follows: physchem. The class given is physicochemical. The following applies: for D (partition ratio), incubation 1 / D (partition ratio), incubation 2 / D (partition ratio), incubation 3: Table S2, n-octanol/PBS pH 7.4. On the procedure:
Determination of Distribution Coefficient (LogD, pH 7.4) […]
n-octanol – phosphate buffered saline (PBS), pH 7.4. Distribution coefficient (or LogD) is a […]
Phosphate buffered saline, tablet (Sigma-Aldrich, USA; Cat # P4417)
Acetic acid (Enamine, Ukraine.)
DMSO stock solutions of the test compounds 10mM
Gradient HPLC system (Shimadzu, Japan)
MTR22 Multi Mix Rotator (UNICO, USA)
Laboratory Centrifuge, Sigma 4-15C, Qiagen (SIGMA GmbH, Germany) […]
allowed to mix in a rotator for 1 h at 30 rpm. Phase separation was assured by centrifugation for […]
dilution. The samples (both phases) were analyzed using a HPLC system coupled with a tandem mass spectrometer. Mebendazole was used as a reference compound. […]
where: SO – peak area of the analyte in octanol phase
S P – peak area of the analyte in PBS buffer do – dilution coefficient for octanol phase dp – dilution coefficient for aqueous phase

Setting [4] is: human, liver microsomes, pH 7.4, human liver microsomes, 2 μM, 37 °C, with NADPH, 7 min.
[5] abbreviates: human, liver microsomes, pH 7.4, human liver microsomes, 2 μM, 37 °C, with NADPH, 15 min.
Setting [6] is: human, liver microsomes, pH 7.4, human liver microsomes, 2 μM, 37 °C, with NADPH, read-out: % Remaining, Mean of 2.
The mark [7] stands for this setting: human, liver microsomes, pH 7.4, human liver microsomes.
Setting [8] is: pH 7.4, human liver microsomes, no NADPH cofactor, ** instability partially or completely not determined by CYP450 activity, read-out: % Remaining without cofactor, Mean of 2.
Where [9] appears, read: Table S1, incubation 1, read-out: PBS solubility, pH 7.4, Incubation 1.
Setting [10] is: Table S1, incubation 2, read-out: PBS solubility, pH 7.4, Incubation 2.
[11] abbreviates: Table S1, mean of 2 incubations, 2 h, 2% DMSO, effective range approx. 2-400 μM, read-out: PBS solubility, pH 7.4, Mean.
Setting [12] is: pH 7.4, LogD, pH 7.4, incubation 1.
Where [13] appears, read: pH 7.4, LogD, pH 7.4, incubation 2.
Setting [14] is: pH 7.4, LogD, pH 7.4, incubation 3.

Usually melting point stands for the temperature, or range, at which the solid turns liquid. Broadly, the solubility is the concentration that dissolves in the medium under given conditions. The term logD denotes the decadic logarithm of the distribution of all forms, ionised or not, between an organic phase and buffer at a given pH.

Molecules are shown by their SMILES. ≈ marks a conversion by molar mass, not a printed value. Like-named read-outs stand apart in the source and are kept apart here. Some results are limits rather than exact numbers.

Turning to `O=C(O)C1C2CC1(c1ccccc1)CO2` (stereo not shown) [Compound 1b], the chemical stability entry in data set [1] (aqueous 1 M hydrochloric acid) and in data set [1] (aqueous 1 M sodium hydroxide) was “did not lead to any decomposition” throughout.

In turn, `Cc1cncc(C23COC(C2)C3C(=O)O)c1` (stereo not shown) [Compound 22b] came in with a melting point of 204 to 205 °C. Moreover, the chemical stability entry in data set [1] (aqueous 1 M hydrochloric acid) is on record as “did not lead to any decomposition”. For the same compound, in data set [1] (aqueous 1 M sodium hydroxide), the chemical stability result was “did not lead to any decomposition”.

`O=C(O)C1C2CC1(c1ccc(C(F)(F)F)cc1)CO2` (stereo not shown) [Compound 19b] had a melting point of 64 to 65 °C. The chemical stability result in data set [1] (aqueous 1 M hydrochloric acid) is listed as “did not lead to any decomposition”. Moreover, the chemical stability result in data set [1] (aqueous 1 M sodium hydroxide) is given as “did not lead to any decomposition”.

As to `O=C(NC1CCN(CCCCC2(C(=O)NCC(F)(F)F)c3ccccc3-c3ccccc32)CC1)[C@@H]1[C@@H]2CC[C@@]1(c1ccc(C(F)(F)F)cc1)C2` (relative stereo) [Compound 34], the share remaining at […], 2 µM in data set [2] (setting [4]) was 76%; in data set [2] (setting [5]), 41%. The fraction remaining at 25 min, 2 µM in data set [2] (setting [6]) is 21%. Also, the amount remaining at 40 min, 2 µM is 8% in data set [2] (setting [6]) and 91% in data set [2] (setting [8]). Also, in data set [2] (setting [7]), the microsomal CLint at 2 µM stood at 157 µL/min/mg. For the same compound, in data set [2] (setting [7]), the half-life at 2 µM was determined as 10.6 min. For the same compound, the k el at 2 µM in data set [2] (pH 7.4, human liver microsomes) is 0.00108 s⁻¹. In the data set with human liver microsomes, this compound registered a CIint, intrinsic clearance of 157 µL/min/mg. For the same compound, the solubility at 2 h in data set [3] (setting [9]) turned out to be 2 µM (≈ 1.4 µg/mL); in data set [3] (setting [10]), 2 µM (≈ 1.4 µg/mL); in data set [3] (setting [11]), 2 µM (≈ 1.4 µg/mL); in data set [3] (experimental kinetic solubility in phosphate-buffered saline at pH 7.4, Fig. 3, read-out: Solubility), 2 ± 0.2 µM (≈ 1.4 µg/mL). Further, the “D (partition ratio), incubation 1” value in “physchem” stood at 3.53E+08. Also, the “D (partition ratio), incubation 2” value in the data set “physchem” is 3.40E+06. Moreover, the “D (partition ratio), incubation 3” value in “physchem” is 1.71E+05. The logD at 1 h was above 4.5 in “physchem” (pH 7.4, LogD, pH 7.4 (mean)); above 4.5 in the data set “physchem” (setting [12]); above 4.5 in the data set “physchem” (setting [13]); above 4.5 in the data set “physchem” (setting [14]); above 4.5 in the data set “physchem” (pH 7.4, logD (7.4)).

In the case of `O=C(NC1CCN(CCCCC2(C(=O)NCC(F)(F)F)c3ccccc3-c3ccccc32)CC1)[C@@H]1[C@H]2C[C@]1(c1ccc(C(F)(F)F)cc1)CO2` (relative stereo) [Compound 35], the figures for the amount remaining at […], 2 µM in data set [2] (setting [4]) and in data set [2] (setting [5]) were 102% and 77%, respectively. Besides, the amount remaining at 25 min, 2 µM in data set [2] (setting [6]) came out at 36%. For the same compound, the fraction remaining at 40 min, 2 µM in data set [2] (setting [6]) came out at 29%; in data set [2] (setting [8]) it was 84%. The microsomal CLint at 2 µM in data set [2] (setting [7]) worked out at 87 µL/min/mg. For the same compound, the half-life at 2 µM in data set [2] (setting [7]) worked out at 19.2 min. Also, the k el at 2 µM in data set [2] (pH 7.4, human liver microsomes) is 0.0006 s⁻¹. In the data set with human liver microsomes, this compound had a CIint, intrinsic clearance of 87 µL/min/mg. Moreover, the solubility at 2 h came to 2 µM (≈ 1.4 µg/mL) in data set [3] (setting [9]), 4 µM (≈ 2.8 µg/mL) in data set [3] (setting [10]) and 3 µM (≈ 2.1 µg/mL) in data set [3] (setting [11]). Also, the “D (partition ratio), incubation 1” value in the data set “physchem” was determined as 1.46E+05. In addition, in “physchem”, the “D (partition ratio), incubation 2” value came out at 1.62E+05. The “D (partition ratio), incubation 3” value in the data set “physchem” worked out at 8.88E+04. Moreover, the logD at 1 h in the data set “physchem” (pH 7.4, LogD, pH 7.4 (mean)) was above 4.5; in “physchem” (setting [12]), above 4.5; in “physchem” (setting [13]), above 4.5; in “physchem” (setting [14]), above 4.5; in the data set “physchem” (pH 7.4, logD (7.4)) it was above 4.5.

The values are drawn from publication PMC10396955, “2-Oxabicyclo[2.1.1]hexanes as saturated bioisosteres of the ortho-substituted phenyl ring” (Nature Chemistry, 2023).
